Reference: PubChem BioAssay AID1963451 (Molecular Pharmacology Branch, DTP, NCI, 2024)
pIC50: −log10 of the molar value.

System: 521955-158-R6-J3-PDC complex spheroid growth, % test/control
Test: Anticancer human tumor 521955-158-R6-J3-PDC patient-derived pancreatic carcinoma cell line growth inhibition [Asc]
Conditions: for pIC50: curve of first compound; for viability, T/C: stronger effect = lower value
Method in brief: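 Complex solid-tumor spheroids incorporating human endothelial and mesenchymal stem cells received single agents or combinations over half-log dilution ranges anchored to clinical Cmax.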

[1] = second compound 0.0316 µM, first compound 0.0316 µM
[2] = second compound 0.0316 µM, first compound 0.1 µM
[3] = second compound 0.0316 µM, first compound 0.316 µM
[4] = second compound 0.0316 µM, first compound 1 µM
[5] = second compound 0.1 µM, first compound 0.0316 µM
[6] = second compound 0.1 µM, first compound 0.1 µM
[7] = second compound 0.1 µM, first compound 0.316 µM
[8] = second compound 0.1 µM, first compound 1 µM
[9] = second compound 0.316 µM, first compound 0.0316 µM
[10] = second compound 0.316 µM, first compound 0.1 µM
[11] = second compound 0.316 µM, first compound 0.316 µM
[12] = second compound 0.316 µM, first compound 1 µM
[13] = second compound 1 µM, first compound 0.0316 µM
[14] = second compound 1 µM, first compound 0.1 µM
[15] = second compound 1 µM, first compound 0.316 µM
[16] = second compound 1 µM, first compound 1 µM
[17] = second compound 3.16 µM, first compound 0.0316 µM
[18] = second compound 3.16 µM, first compound 0.1 µM
[19] = second compound 3.16 µM, first compound 0.316 µM
[20] = second compound 3.16 µM, first compound 1 µM
[21] = second compound 10 µM, first compound 0.0316 µM
[22] = second compound 10 µM, first compound 0.1 µM
[23] = second compound 10 µM, first compound 0.316 µM
[24] = second compound 10 µM, first compound 1 µM
[25] = second compound 0.0316 µM, first compound 0.00316 µM
[26] = second compound 0.0316 µM, first compound 0.01 µM
[27] = second compound 0.1 µM, first compound 0.00316 µM
[28] = second compound 0.1 µM, first compound 0.01 µM
[29] = second compound 0.316 µM, first compound 0.00316 µM
[30] = second compound 0.316 µM, first compound 0.01 µM
[31] = second compound 1 µM, first compound 0.00316 µM
[32] = second compound 1 µM, first compound 0.01 µM
[33] = second compound 3.16 µM, first compound 0.00316 µM
[34] = second compound 3.16 µM, first compound 0.01 µM
[35] = second compound 10 µM, first compound 0.00316 µM
[36] = second compound 10 µM, first compound 0.01 µM
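Note: spheroids exposed to compounds for 7 days.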
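Throughout, for viability, T/C: 100% = DMSO vehicle control wells.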

## C=CC(=O)N1CCN(c2nc(=O)n(-c3c(C)ccnc3C(C)C)c3nc(-c4c(O)cccc4F)c(F)cc23)C(C)C1 (stereo unspecified) + Cc1c(S(C)(=O)=O)c(-c2cc(F)cc(N3CCN(c4ccc(NS(=O)(=O)c5ccc(NC(CCN6CCC(C(=O)OCCCP(=O)(O)O)CC6)CSc6ccccc6)c(S(=O)(=O)C(F)(F)F)c5)cc4)CC3)c2)c(-c2ccc(Cl)cc2)n1C(C)C
Second compound 0.0316 µM
  pIC50: < 5.00
Second compound 0.1 µM
  pIC50: < 5.00
Second compound 0.316 µM
  pIC50: > 7.50
Second compound 1 µM
  pIC50: > 7.50
Second compound 3.16 µM
  pIC50: > 7.50
Second compound 10 µM
  pIC50: > 7.50
[1]
  viability, T/C: 84.4%
[2]
  viability, T/C: 84%
[3]
  viability, T/C: 84.6%
[4]
  viability, T/C: 80.3%
Second compound 0.0316 µM, first compound 3.16 µM
  viability, T/C: 79.7%
Second compound 0.0316 µM, first compound 10 µM
  viability, T/C: 79.7%
[5]
  viability, T/C: 72.2%
[6]
  viability, T/C: 72.3%
[7]
  viability, T/C: 67.6%
[8]
  viability, T/C: 68.4%
Second compound 0.1 µM, first compound 3.16 µM
  viability, T/C: 59.6%
Second compound 0.1 µM, first compound 10 µM
  viability, T/C: 50.7%
[9]
  viability, T/C: 47.8%
[10]
  viability, T/C: 48.4%
[11]
  viability, T/C: 42.5%
[12]
  viability, T/C: 46.3%
Second compound 0.316 µM, first compound 3.16 µM
  viability, T/C: 38.3%
Second compound 0.316 µM, first compound 10 µM
  viability, T/C: 29.2%
[13]
  viability, T/C: 45.6%
[14]
  viability, T/C: 36.8%
[15]
  viability, T/C: 41.8%
[16]
  viability, T/C: 33.7%
Second compound 1 µM, first compound 3.16 µM
  viability, T/C: 23.6%
Second compound 1 µM, first compound 10 µM
  viability, T/C: 19.8%
[17]
  viability, T/C: 23.1%
[18]
  viability, T/C: 22.8%
[19]
  viability, T/C: 17.4%
[20]
  viability, T/C: 15.6%
Second compound 3.16 µM, first compound 3.16 µM
  viability, T/C: 12.6%
Second compound 3.16 µM, first compound 10 µM
  viability, T/C: 7.39%
[21]
  viability, T/C: 12.7%
[22]
  viability, T/C: 9.59%
[23]
  viability, T/C: 12.5%
[24]
  viability, T/C: 9.66%
Second compound 10 µM, first compound 3.16 µM
  viability, T/C: 23.2%
Second compound 10 µM, first compound 10 µM
  viability, T/C: 8.51%

## COc1c(OCCCN2CCOCC2)ccc2c3n(c(=NC(=O)c4cnc(N)nc4)nc12)CCN3 + Cc1c(S(C)(=O)=O)c(-c2cc(F)cc(N3CCN(c4ccc(NS(=O)(=O)c5ccc(NC(CCN6CCC(C(=O)OCCCP(=O)(O)O)CC6)CSc6ccccc6)c(S(=O)(=O)C(F)(F)F)c5)cc4)CC3)c2)c(-c2ccc(Cl)cc2)n1C(C)C
Second compound 0.0316 µM
  pIC50: 6.65
Second compound 0.1 µM
  pIC50: 7.07
Second compound 0.316 µM
  pIC50: > 8.50
Second compound 1 µM
  pIC50: > 8.50
Second compound 3.16 µM
  pIC50: > 8.50
Second compound 10 µM
  pIC50: > 8.50
[25]
  viability, T/C: 87.5%
[26]
  viability, T/C: 84.8%
[1]
  viability, T/C: 55.2%
[2]
  viability, T/C: 70.2%
[3]
  viability, T/C: 46.7%
[4]
  viability, T/C: 27.4%
[27]
  viability, T/C: 82.7%
[28]
  viability, T/C: 61%
[5]
  viability, T/C: 61.6%
[6]
  viability, T/C: 53.4%
[7]
  viability, T/C: 34%
[8]
  viability, T/C: 17.3%
[29]
  viability, T/C: 42%
[30]
  viability, T/C: 38.9%
[9]
  viability, T/C: 39%
[10]
  viability, T/C: 30.5%
[11]
  viability, T/C: 28%
[12]
  viability, T/C: 13%
[31]
  viability, T/C: 33.9%
[32]
  viability, T/C: 36.3%
[13]
  viability, T/C: 33.5%
[14]
  viability, T/C: 20.5%
[15]
  viability, T/C: 15.8%
[16]
  viability, T/C: 6.07%
[33]
  viability, T/C: 15.3%
[34]
  viability, T/C: 18.2%
[17]
  viability, T/C: 16.9%
[18]
  viability, T/C: 11.9%
[19]
  viability, T/C: 4.31%
[20]
  viability, T/C: 2.03%
[35]
  viability, T/C: 17.6%
[36]
  viability, T/C: 14.4%
[21]
  viability, T/C: 8.58%
[22]
  viability, T/C: 7.73%
[23]
  viability, T/C: 2.64%
[24]
  viability, T/C: 1.68%

## NC1CCC(NC2CC2c2ccccc2)CC1 (stereo unspecified) + Cc1c(S(C)(=O)=O)c(-c2cc(F)cc(N3CCN(c4ccc(NS(=O)(=O)c5ccc(NC(CCN6CCC(C(=O)OCCCP(=O)(O)O)CC6)CSc6ccccc6)c(S(=O)(=O)C(F)(F)F)c5)cc4)CC3)c2)c(-c2ccc(Cl)cc2)n1C(C)C
Second compound 0.0316 µM
  pIC50: < 7.00
Second compound 0.1 µM
  pIC50: < 7.00
Second compound 0.316 µM
  pIC50: > 9.50
Second compound 1 µM
  pIC50: > 9.50
Second compound 3.16 µM
  pIC50: > 9.50
Second compound 10 µM
  pIC50: > 9.50
Second compound 0.0316 µM, first compound 0.000316 µM
  viability, T/C: 83.7%
Second compound 0.0316 µM, first compound 0.001 µM
  viability, T/C: 97.1%
[25]
  viability, T/C: 80.8%
[26]
  viability, T/C: 92.7%
[1]
  viability, T/C: 96.6%
[2]
  viability, T/C: 90.4%
Second compound 0.1 µM, first compound 0.000316 µM
  viability, T/C: 97.7%
Second compound 0.1 µM, first compound 0.001 µM
  viability, T/C: 94.7%
[27]
  viability, T/C: 87.4%
[28]
  viability, T/C: 74.8%
[5]
  viability, T/C: 79.1%
[6]
  viability, T/C: 73.3%
Second compound 0.316 µM, first compound 0.000316 µM
  viability, T/C: 47.1%
Second compound 0.316 µM, first compound 0.001 µM
  viability, T/C: 51.2%
[29]
  viability, T/C: 55.4%
[30]
  viability, T/C: 61.9%
[9]
  viability, T/C: 43.9%
[10]
  viability, T/C: 63.8%
Second compound 1 µM, first compound 0.000316 µM
  viability, T/C: 29%
Second compound 1 µM, first compound 0.001 µM
  viability, T/C: 36.1%
[31]
  viability, T/C: 38.5%
[32]
  viability, T/C: 29.1%
[13]
  viability, T/C: 45.4%
[14]
  viability, T/C: 36.6%
Second compound 3.16 µM, first compound 0.000316 µM
  viability, T/C: 16.8%
Second compound 3.16 µM, first compound 0.001 µM
  viability, T/C: 19.4%
[33]
  viability, T/C: 20%
[34]
  viability, T/C: 20.5%
[17]
  viability, T/C: 20.6%
[18]
  viability, T/C: 18.4%
Second compound 10 µM, first compound 0.000316 µM
  viability, T/C: 16.8%
Second compound 10 µM, first compound 0.001 µM
  viability, T/C: 11.2%
[35]
  viability, T/C: 16.9%
[36]
  viability, T/C: 11.9%
[21]
  viability, T/C: 11.8%
[22]
  viability, T/C: 11.5%
